Measurements taken from PMC12040169 (PLOS Biology, 2025).

Assay: in vitro
Details: human, hela cells, % viability

Compound | viability at 28.5 h, 10 µM | viability at 28.5 h, 10 µM (bulk resorufin, single well)
Cc1c(C(=O)NCCOc2ccc(-c3ccccc3)cc2)sc2nc[nH]c(=O)c12 [CBK285805] | 92.2% | 
O=C1NC(=O)C(CCC(=O)N2CCN(c3nc4ccccc4s3)CC2)C(=O)N1 [CBK285807] |  | 86.6%
O=C1NCCN(C(=O)c2cccc3cccnc23)C1Cc1ccc(-c2cccs2)cc1 (stereo not shown) [CBK285809] | 81.4% | 
Cn1nc(C(C)(C)C)cc1C(=O)N1CCNC(=O)C1Cc1ccc(-c2cccs2)cc1 (stereo not shown) [CBK285810] | 92.2% | 
CCN1CCN(C(=O)c2cccc(N(C)C)c2)C(Cc2ccc(-c3ccncc3)cc2)C1=O (stereo not shown) [CBK285813] | 101% | 
O=C(Nc1ccc(OCc2ccccc2F)cc1)c1ccc(-n2cnnc2)cc1 [CBK285816] | 81.4% | 
COc1ccc(-c2ccc(OC)cc2C(=O)Nc2cccc(-n3cccn3)c2)cc1 [CBK285818] | 94.6% | 
Cc1ccc(CN2CCC(N3C(=O)NC4(CCN(CC(C)C)CC4)C3=O)CC2)cc1C [CBK285822] | 96.9% | 
O=C(Nc1cccc(-c2nc3ccccc3s2)c1)c1ccc(Cn2cnnn2)cc1 [CBK285823] | 85.2% | 
COc1ccc(CC(=O)N2CCNC(=O)C2Cc2ccccc2-c2ccccc2)cc1OC (stereo not shown) [CBK285827] | 102% | 
O=C1NCCN(C(=O)c2[nH]nc3c2CCCCC3)C1Cc1ccccc1-c1ccc(F)cc1 (stereo not shown) [CBK285831] | 98.1% | 
CC(C)c1cc(C(=O)N2CCN(C)C(=O)C2Cc2ccccc2-c2ccc(F)cc2)[nH]n1 (stereo not shown) [CBK285833] | 92.1% | 
Cc1c(C(=O)Nc2ccc(OCc3ccccc3F)cc2)sc2nc[nH]c(=O)c12 [CBK285834] | 98.5% | 
CNc1nc(C2CCN(C(=O)c3ccc(N4CCC(C)CC4)cc3)C2)nc2c1CCN(C)C2 (stereo not shown) [CBK285835] | 106% | 
CCCN1CCN(C(=O)c2ccc(=O)n(C)c2)C(Cc2ccccc2-c2ccccc2)C1=O (stereo not shown) [CBK285836] | 108% | 
CC(=O)Nc1ccc(C(=O)N2CCNC(=O)C2Cc2ccccc2-c2cccc(C)c2)cc1 (stereo not shown) [CBK285837] | 106% | 
Cc1ccc2[nH]c(-c3cccc(NC(=O)c4cccc(CN5CCCC5=O)c4)c3)nc2c1 [CBK285838] | 85.8% | 
CCOc1ccccc1C(=O)N1CCCCC1c1ncc(C(=O)Nc2ccccc2)c(C)n1 (stereo not shown) [CBK285840] | 103% | 
CCOc1ccccc1-c1ccccc1NC(=O)c1cc(=O)n(C)c2ccccc12 [CBK285843] | 100% | 
O=C(CCC1C(=O)NC(=O)NC1=O)Nc1cccc(-c2nc3ccccc3s2)c1 [CBK285844] |  | 105%
Cc1nc(C2CCN(C(=O)CC3CCCC3)CC2)ncc1C(=O)Nc1ccc(Cl)cc1 [CBK285847] | 97.8% | 
COc1cccc(-c2ccc(NC(=O)CCC3C(=O)Nc4ccccc43)cc2)c1 (stereo not shown) [CBK285851] | 116% | 
CCN(Cc1cnc(C)s1)[C@H]1CCO[C@@H](c2ccccc2-c2ccc(OC)cc2)C1 [CBK285853] | 95.5% | 
CCOc1ccccc1-c1ccccc1NC(=O)c1nc2ccccc2n(C)c1=O [CBK285855] | 90.1% | 
CC(C)CNC(=O)c1cc([C@H]2CC[C@H](CNC(=O)Cn3cccn3)CC2)nc2ccccc12 [CBK285860] | 102% | 
CC(C)NC(=O)c1cc([C@H]2CC[C@H](CNC(=O)CN3CCCC3)CC2)nc2ccccc12 [CBK285861] | 85.7% | 
CCn1nc(C(=O)Nc2ccccc2-c2ccc(OC)cc2)c2ccccc2c1=O [CBK285864] | 94.1% | 

Compound | viability at 28.5 h, 10 µM | viability at 28.5 h, 10 µM (bulk resorufin, single well)
COc1ccc(-c2ccccc2NC(=O)c2cccc(CN3CCCC3=O)c2)cc1 [CBK285865] | 91.4% | 
Cc1nc(C2CCCCN2C(=O)CCc2ccccc2)ncc1C(=O)Nc1ccc(F)cc1 (stereo not shown) [CBK285870] | 95.3% | 
Cc1nc(C2CCCCN2C(=O)COc2ccccc2)ncc1C(=O)Nc1ccc(F)cc1 (stereo not shown) [CBK285871] | 98.6% | 
CC(C)NC(=O)c1sc2ccccc2c1C1CCN(C(=O)COc2ccccc2)C1 (stereo not shown) [CBK285875] | 113% | 
CNC(=O)c1sc2ccccc2c1C1CCN(C(=O)Cc2coc3c(C)c(C)ccc23)C1 (stereo not shown) [CBK285876] | 90.3% | 
CNC(=O)c1sc2ccccc2c1C1CCN(S(=O)(=O)c2ccc(C)c(C)c2)C1 (stereo not shown) [CBK285877] | 85.8% | 
CC(C)NC(=O)c1sc2ccccc2c1C1CN(Cc2cccc3ncccc23)CCO1 (stereo not shown) [CBK285879] | 85.6% | 
CNC(=O)c1sc2ccccc2c1C1CCN(Cc2cnc(-c3ccc(C)cc3)nc2)C1 (stereo not shown) [CBK285883] | 108% | 
Nc1nc2c(cc1C(=O)NCc1ccccc1)CN(C(=O)CCCc1ccc(F)cc1)CC2 [CBK285887] | 95.3% | 
CC(=O)NCc1ccc(-c2ccc(C(=O)NCc3ccc4[nH]c(C)c(C)c4c3)c(C)n2)cc1 [CBK285888] | 72.1% | 
CC(C)NC(=O)c1cc(C2CN(C(=O)CCc3ccccc3F)CCO2)nc2ccccc12 (stereo not shown) [CBK285893] | 109% | 
COc1cccc(C(=O)N2CCOC(c3cc(C(=O)NCC(C)C)c4ccccc4n3)C2)c1 (stereo not shown) [CBK285894] | 97.4% | 
CCOc1cccc(OCC(=O)N2CCC(c3cc(C(=O)NC)c4ccccc4n3)C2)c1 (stereo not shown) [CBK285896] | 81.5% | 
CCOc1ccc(CC(=O)NC[C@H]2CC[C@H](c3cc(C(N)=O)c4ccccc4n3)CC2)cc1 [CBK285899] | 92.2% | 
CNC(=O)C1(Cc2ccccc2-c2cccs2)CCN(C(=O)CCc2ccccc2)CC1 [CBK285900] | 108% | 
CNC(=O)C1(Cc2ccccc2-c2ccccc2C)CCN(C(=O)Cc2ccccc2)CC1 [CBK285901] | 106% | 
Cc1nc2ccc(NC(=O)CC3CCN(S(=O)(=O)c4cccc(F)c4)CC3)cc2[nH]1 [CBK285903] | 88.8% | 
O=C(Nc1nc2c(s1)CCCCC2)C1CN(C(=O)Cc2ccc(F)cc2)C1 [CBK285904] | 87.2% | 
CNC(=O)C1(Cc2ccccc2-c2cccs2)CCN(C(=O)c2cccc(OC)c2)CC1 [CBK285907] | 85.7% | 
COc1cccc(CC(=O)N2CCC(Cc3ccccc3-c3cccs3)(C(N)=O)CC2)c1 [CBK285908] | 112% | 
CCOc1ccccc1C(=O)N1CCC(Cc2ccccc2-c2ccccc2)(C(N)=O)CC1 [CBK285910] | 89.6% | 
CNC(=O)C1(Cc2cccc(-c3cccs3)c2)CCN(C(=O)CCc2ccccc2)CC1 [CBK285913] | 90.4% | 
CCOc1ccccc1C(=O)N1CCC(Cc2cccc(-c3cccs3)c2)(C(N)=O)CC1 [CBK285914] | 84.9% | 
Cc1cccc(C)c1OCC(=O)N1CCC(c2cc(C(=O)NC(C)C)c3ccccc3n2)C1 (stereo not shown) [CBK285916] | 112% | 
CCOc1ccccc1C(=O)N1CCC(c2cc(C(=O)NC(C)C)c3ccccc3n2)C1 (stereo not shown) [CBK285918] | 106% | 
COc1ccc(CCC(=O)NC[C@H]2CC[C@H](c3cc(C(N)=O)c4ccccc4n3)CC2)cc1 [CBK285920] | 91.7% | 
CNC(=O)C1(Cc2ccccc2-c2ccccc2)CCN(C(=O)c2cccc(OC)c2)CC1 [CBK285922] | 85.3% | 

Compound | viability at 28.5 h, 10 µM | viability at 28.5 h, 10 µM (bulk resorufin, single well)
CNC(=O)c1sc2ccccc2c1C1CCN(Cc2ccc(OC)c(OC(C)C)c2)C1 (stereo not shown) [CBK285928] | 95.5% | 
CNC(=O)c1sc2ccccc2c1C1CCN(Cc2nc3ccccc3n2C(C)C)C1 (stereo not shown) [CBK285929] | 98.4% | 
CC(C)NC(=O)c1sc2ccccc2c1C1CN(Cc2ccc3ncccc3c2)CCO1 (stereo not shown) [CBK285930] | 81.5% | 
O=C(NCCc1ccc(Cl)cc1)C1CCN(C(=O)CCc2ccccc2F)C1 (stereo not shown) [CBK285931] | 84.1% | 
Cc1cc(Cc2ccccc2F)cc(C2CCN(C(=O)c3nc4ccc(F)cc4[nH]3)CC2)n1 [CBK285932] | 120% | 
Cc1cc(N2CCCC(N(C)S(=O)(=O)c3cccc(F)c3)CC2)nc(C)n1 (stereo not shown) [CBK285935] | 85.5% | 
CN(Cc1ccccc1)C(=O)c1c[nH]nc1C1CCCCN1Cc1ccccc1Cl (stereo not shown) [CBK285936] | 88.1% | 
CN(C)c1ccc(CCNS(=O)(=O)c2ccc3[nH]c(=O)[nH]c(=O)c3c2)cc1 [CBK285938] | 84.8% | 
Cc1nc(C2(O)CCCN(C3CCCC3)CC2)sc1COc1ccc(Cl)cc1 (stereo not shown) [CBK285940] | 122% | 
CN(Cc1ccc2ncccc2c1)C(=O)C1CN(S(=O)(=O)c2ccc(F)cc2)C1 [CBK285943] | 92.5% | 
CC(C)c1csc(NC(=O)C2CN(S(=O)(=O)c3ccc(F)cc3)C2)n1 [CBK285944] | 120% | 
COc1ccc(-c2cncc(C3CN(Cc4cccc5ncccc45)CCO3)n2)cc1 (stereo not shown) [CBK285947] | 96.7% | 
CC(NC(=O)CC1CCN(Cc2cccc(C(F)(F)F)c2)CC1)c1nc2ccccc2[nH]1 (stereo not shown) [CBK285952] | 104% | 
COc1ccccc1CC(C)NC(=O)CC1CCN(c2nc(C)cc(C)n2)CC1 (stereo not shown) [CBK285956] | 111% | 
Cc1cc(C)nc(N2CCC(CC(=O)N3CCN(C4CCCC4)CC3)CC2)n1 [CBK285957] | 97.6% | 
O=C(CC1CCN(Cc2ccccn2)CC1)NCC1(c2ccccc2)CCCC1 [CBK285959] | 87.4% | 
O=C(CC1CCN(Cc2ccccn2)CC1)Nc1ccc(OC2CCCC2)cc1 [CBK285960] | 104% | 
CC(C)c1csc(NC(=O)CC2CCN(C(=O)CC3CCCCC3)CC2)n1 [CBK285963] | 82.3% | 
Cc1cccc(CCNC(=O)CC2CCN(C(=O)CC3CCCCC3)CC2)c1 [CBK285964] | 114% | 
O=C(CC1CCN(C(=O)Cc2ccccc2)CC1)NC1(c2ccccc2)CCCC1 [CBK285965] | 101% | 
Cc1cnc(Nc2cccc(C3CCCN3C(=O)CCOc3ccccc3C)n2)s1 (stereo not shown) [CBK285972] | 112% | 
COc1cccc(-c2cncc(C3CN(Cc4cccc5ncccc45)CCO3)n2)c1 (stereo not shown) [CBK285973] | 102% | 
CCn1c(CN2CCCC2c2nc(N(C)C)ncc2-c2ccc(F)cc2)nc2ccccc21 (stereo not shown) [CBK285974] | 94.9% | 
O=C(Cn1cccc(C(=O)NC2CCCC2)c1=O)NCC1(c2ccccc2)CCCC1 [CBK285975] | 96.2% | 
Cc1[nH]c2cccc(C(=O)N3CCCCC3CCNC(=O)c3ccccc3)c2c1C (stereo not shown) [CBK285976] | 82% | 
